Reference: patent US8906904B2, “Alkoxy pyrazoles as soluble guanylate cyclase activators” (Boehringer Ingelheim International GmbH, priority 2012, dated 2014)
Values after ≈ are worked out from the molar mass of the structure shown.

Columns and labels:
[1] = molecular target: T1, human soluble guanylate cyclase alpha 1 and beta 1 subunits (sGC) (Homo sapiens, UniProt Q02108+Q02153); assay: sGC cellular activator assay (cGMP, HTRF); type: cell-based; settings: CHO cells stably expressing human sGC alpha 1/beta 1, preincubated with 40 microM ODQ; cGMP readout; assay run with and without 50% human serum, Table 2 does not say which
T1 construct: expressed in transfected cells; host or cells: Chinese hamster ovary (CHO) cells, stably transfected
T1 sequence (Q02108 1-690): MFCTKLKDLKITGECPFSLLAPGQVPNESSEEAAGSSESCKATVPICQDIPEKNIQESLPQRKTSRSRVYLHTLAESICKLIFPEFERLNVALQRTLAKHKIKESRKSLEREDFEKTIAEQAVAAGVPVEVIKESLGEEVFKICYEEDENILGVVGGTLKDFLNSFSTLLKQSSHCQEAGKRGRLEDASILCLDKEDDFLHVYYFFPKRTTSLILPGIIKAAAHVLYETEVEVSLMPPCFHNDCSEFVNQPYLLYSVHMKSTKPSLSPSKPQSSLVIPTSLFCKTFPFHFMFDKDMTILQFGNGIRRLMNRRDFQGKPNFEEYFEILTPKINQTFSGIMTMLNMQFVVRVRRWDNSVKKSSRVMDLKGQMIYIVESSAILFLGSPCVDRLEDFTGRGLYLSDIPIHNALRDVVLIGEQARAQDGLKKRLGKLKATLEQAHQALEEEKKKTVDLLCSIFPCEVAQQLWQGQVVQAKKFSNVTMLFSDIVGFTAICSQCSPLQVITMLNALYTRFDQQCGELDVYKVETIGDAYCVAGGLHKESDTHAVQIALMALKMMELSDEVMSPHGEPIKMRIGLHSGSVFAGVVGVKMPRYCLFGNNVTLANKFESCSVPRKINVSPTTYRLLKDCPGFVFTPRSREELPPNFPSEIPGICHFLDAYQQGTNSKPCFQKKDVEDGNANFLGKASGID
T1 sequence (Q02153 1-619): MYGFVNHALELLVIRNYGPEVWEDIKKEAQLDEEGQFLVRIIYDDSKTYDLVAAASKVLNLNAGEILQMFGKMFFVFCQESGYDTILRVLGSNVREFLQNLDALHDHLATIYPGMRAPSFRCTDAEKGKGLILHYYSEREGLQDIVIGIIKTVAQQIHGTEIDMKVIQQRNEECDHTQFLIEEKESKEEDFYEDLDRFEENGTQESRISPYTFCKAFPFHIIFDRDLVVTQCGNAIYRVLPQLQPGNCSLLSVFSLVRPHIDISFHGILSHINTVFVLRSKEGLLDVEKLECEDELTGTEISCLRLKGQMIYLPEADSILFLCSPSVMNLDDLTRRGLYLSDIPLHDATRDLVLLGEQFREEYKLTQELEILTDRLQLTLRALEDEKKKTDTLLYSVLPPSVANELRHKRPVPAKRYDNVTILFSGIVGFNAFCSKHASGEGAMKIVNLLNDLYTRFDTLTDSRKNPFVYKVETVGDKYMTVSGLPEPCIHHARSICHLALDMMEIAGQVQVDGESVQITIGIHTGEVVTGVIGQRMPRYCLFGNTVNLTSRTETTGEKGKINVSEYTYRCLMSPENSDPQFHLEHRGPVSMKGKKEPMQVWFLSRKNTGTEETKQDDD
Description: The sGC cellular activator assay is performed in the presence and absence of 50% human serum (HS) using Chinese hamster ovary cells that have been stably transfected to express the human soluble guanylate cyclase alpha 1 and beta 1 subunits (sGC). Cells are preincubated with 40 microM 1H-[1,2,4]oxadiazolo[4,3-a]quinoxalin-1-one (ODQ), an sGC inhibitor, for one h in buffer containing 0.1% bovine serum albumin and 3-isobutyl-1-methylxanthine (IBMX). Concentration response curves are prepared for test compounds in DMSO. An intermediate dilution of the compounds is performed in either buffer containing IBMX or type AB HS containing IBMX. Diluted compounds are added to cells and they are incubated at room temperature for thirty min. cGMP is measured using a CisBio homogeneous time resolved fluorescence kit and the EC50 is calculated for each compound.
Representative compounds of the present invention were tested for activity the above assay. Preferred compounds have an EC50 of <1,000 nM in the above assay and more preferred compounds have an EC50<200 nM.

[2] = human liver microsome (HLM) metabolic stability assay; type: in vitro ADME; settings: human liver microsomes; % hepatic blood flow calculated from t1/2
Description: The 5 time point, high-throughput human liver microsome (HLM) metabolic stability assay is designed to determine in vitro compound metabolism. Compounds are incubated with HLMs at a concentration of 1 uM, at 37° C., for a total of 60 min. The percent of compound remaining at 5, 15, 30, and 60 min is used to calculate the t½ (min), CLint (mL/min/kg), CLh (mL/min/kg), and % Qh. The assay is based on a 96-well format and can accommodate up to 92 compounds per plate (n=1).
Using the 96-well multi-channel head, the Biomek FX, equipped with a Peltier heating block/shaker, is programmed to accomplish the following steps: • 1. Pipette 175 uL of 1.15 mg/mL microsomes into each of the 96 conical inserts (Analytical Sales and Products, catalog number 96PL05) that fit into the plate of the Peltier heating block/shaker (the incubation plate) • 2. Add 5 uL of compounds from the assay plate to the microsomes and shake the mixture at 600 rpm at 42.1° C. for 10 min (a setting of 42.1° C. on the Peltier is required for the samples to incubate at 37° C.) • 3. After 10 min, prompt the user to add the NADPH plate to the deck and add 20 uL from the NADPH plate to the incubation plate to start the reaction • 4. Add 215 uL of 100%, cold acetonitrile containing an internal standard(s) to a 0 minute, 5 minute, 15 minute, 30 minute, and 60 minute “quench” plate • 5. At 0 min, 5 min, 15 min, 30 min, and 60 min into the incubation, aspirate 12 uL from the incubation mixture and add it to the quench solution to stop the reaction • 6. Add 185 uL HPLC grade water to each well of the 0, 5, 15, 30 and 60 minute quench plates to dilute compounds to the appropriate concentration for the mass spectrometer
After all time points are collected, the quench plates are sealed with 96-well pierceable plate mats or heat sealing foil and centrifuged at 3000 rpm for 15 min to pellet the microsomes.
The plates are analyzed using LC/MS/MS with electron spray ionization (ESI) and the previously determined MRM transitions. The LC method includes the following parameters:
Using an Excel template in Activitybase, the peak areas corresponding to 5, 15, 30 and 60 min are compared to the peak area at 0 min to calculate the percent of remaining compound using the following equation: Percent compound remaining=(AUC at Time t min/AUC at Time 0 min)×100 where t=0, 5, 15, 30 or 60 min.
Time (min) is plotted against the natural logarithm (Ln) of the percent compound remaining to determine the slope. The slope is used to calculate t½ (min) using the equation, t½=0.693/slope.
Preferred compounds have % Qh values of less than 24.

[3] = Assessment of solubility (McIlvaine buffers, 24 h shake, UPLC-UV); type: physicochemical; settings: kinetic from dmso stock
Description: Solubility is measured by the following method.
100 uL, 10 mM DMSO stock solution of each compound is prepared in a 96 well plate format. The experiment is done in single determination at 3 pH values (2.2, 4.5 and 6.8). For each pH and one reference, 40 uL of each compound is needed.
McIlvaine pH 2.2: To 2.076 g citric acid monohydrate and 0.043 g Na2HPO4×2H2O add 100 ml deionized water
McIlvaine pH 4.5: To 1.166 g citric acid monohydrate and 1.585 g Na2HPO4×2H2O add 100 ml deionized water
McIlvaine pH 6.8: To 0.476 g citric acid monohydrate and 2.753 g Na2HPO4×2H2O add 100 ml deionized water
With a suitable liquid handling device (Multipette® or a liquid handler) 390 uL of each buffer solution and 10 uL of compound is added to each well of a 96 deep well plate. The plates are covered firmly and shaken for 24 h on an over head shaker (at 54 RPM) at room temperature. The DMSO content in the final buffer is 2.5% v/v.
After 24 h the plates are centrifuged to remove droplets on the lid before opening (for ˜5 min at 2500 RPM).
The filtration is done under vacuum with Millipore 96 well filter plate. Filtrate is collected in a deep well plate and transferred to a suitable plate for UPLC analysis.
The reference plate is prepared by adding 10 uL of compound to 390 uL of 50:50 acetonitrile/water in a 96 deep well plate and transferred to a suitable plate for UPLC analysis. Wells are checked visually for precipitation, any presence noted under comments in reported results.
The samples are measured with UPLC-UV using the chromatographic method described below.
Waters Empower®2 software is used for generating Sample Sets (according to the plate layout), Sample Set Methods and Instrument Methods.
One Sample Set comprises the methods for three 96 well plates (one reference plate and two sample plates, and includes one Sample Set Method and one Instrument Method).
3. Data Processing and Analysis
The UV chromatograms collected at 254 nm are integrated and processed.
It is assumed that the compound is completely dissolved in the reference solution (50:50 acetonitrile/water)

Row | SMILES | EC50 [1] [nM] | HLM (% Qh) [2] [% Qh] | solubility at 24 h ([3]; pH 2.2, aqueous buffer) [µg/mL] | solubility at 24 h ([3]; pH 4.5, aqueous buffer) [µg/mL] | solubility at 24 h ([3]; pH 6.8, aqueous buffer) [µg/mL]
1 | CCOc1c(C(=O)O)cnn1-c1cccc(-c2cccc(C)c2OCc2ccc3c(c2)CN(C2CCOCC2)C3)n1 [Compound 216] | 110 | <24 |  |  | 
2 | COc1c(C(=O)O)cnn1-c1cccc(-c2cccc(C)c2OCc2ccc3c(c2)CCN(C[C@H]2CCOC2)C3)n1 [Compound 192] | 10 | <24 |  |  | 
3 | Cc1cccc(-c2cccc(-n3ncc(C(=O)O)c3OC(C)C)n2)c1OCc1ccc2c(c1C)CCN([C@@H]1CCCOC1)C2 [Compound 116] | 28 | <24 |  |  | 
4 | CCOc1c(C(=O)O)cnn1-c1cccc(-c2cccc(C)c2OCc2ccc3c(c2C)CCN(C(CO)CO)C3)n1 [Compound 156] | 720 | <24 |  |  | 
5 | CCOc1c(C(=O)O)cnn1-c1cccc(-c2cccc(C)c2OCc2ccc3c(c2)CCNC3)n1 [Compound 60] |  | <24 | 117 (≈ 241 µM) | 96 (≈ 198 µM) | 100 (≈ 206 µM)
6 | COc1c(C(=O)O)cnn1-c1cccc(-c2cccc(C)c2OCc2cc(C)c3c(c2C)CN(S(=O)(=O)c2ccc(C)cc2)C3)n1 [Compound 138] | 54 | 68 |  |  | 
7 | COc1c(C(=O)O)cnn1-c1cccc(-c2cccc(C)c2OCc2cc(C)c3c(c2C)CN(CC2COCCO2)C3)n1 (centres unmarked) [Compound 246] | 6.5 | <24 |  |  | 
8 | COc1c(C(=O)O)cnn1-c1cccc(-c2cccc(C)c2OCc2ccc3c(c2)CN(C2CCOCC2)C3)n1 [Compound 59] | 31 | <24 |  |  | 

Other lines, results leading:

Row | EC50 [1] [nM] | HLM (% Qh) [2] [% Qh] | solubility at 24 h ([3]; pH 2.2, aqueous buffer) [µg/mL] | solubility at 24 h ([3]; pH 4.5, aqueous buffer) [µg/mL] | solubility at 24 h ([3]; pH 6.8, aqueous buffer) [µg/mL] | SMILES
9 | 9.5 | <24 |  |  |  | COc1c(C(=O)O)cnn1-c1cccc(-c2cccc(C)c2OCc2cc(C)c3c(c2)CN(C2CCOCC2)C3)n1 [Compound 255]
10 | 15 | <24 |  |  |  | COc1c(C(=O)O)cnn1-c1cccc(-c2cccc(C)c2OCc2cc(C)c3c(c2)CN(C2COC2)C3)n1 [Compound 258]
11 | 14 | <24 |  |  |  | COc1c(C(=O)O)cnn1-c1cccc(-c2cccc(C)c2OCc2ccc3c(c2C)CN(C2COC2)C3)n1 [Compound 257]
12 | 14 | <24 |  |  |  | COc1c(C(=O)O)cnn1-c1cccc(-c2cccc(C)c2OCc2ccc3c(c2C)CN(C2CCOCC2)C3)n1 [Compound 256]
